Patent US12447156B2, “Treating progressive familial intrahepatic cholestasis (PFIC) with IBAT inhibitors” (ALBIREO AB, priority 2020, dated 2025)

How the values were obtained:
[1] = test system: patients with PFIC with prior PEBD surgery; assay: PEDFIC 1/2 post hoc subgroup: patients with prior partial external biliary diversion (PEBD); type: in vivo, human
Method: One surgical treatment option for patients with PFIC is partial external biliary diversion (PEBD), which can be used to reduce bile acid levels in patients with medically refractory pruritus. However, PEBD is not successful in all patients. […] This post hoc subgroup analysis evaluated the safety and efficacy of odevixibat in patients enrolled in the PEDFIC studies who had PEBD surgery prior to study entry.
In the double-blind PEDFIC 1 study, children with PFIC1 or PFIC2 were randomized to placebo or 40 or 120 μg/kg/day odevixibat for 24 weeks. In PEDFIC 2, an ongoing, open-label extension study, patients from PEDFIC 1 or newly enrolled patients with any PFIC subtype receive odevixibat 120 μg/kg/day. In both PEDFIC 1 and PEDFIC 2, eligible patients had elevated sBAs and significant pruritus at screening. Changes over time in sBA levels and observer-reported pruritus (range: 0-4; higher scores indicate worse symptoms), sleep parameters, and quality of life (QoL; assessed with the Pediatric Quality of Life Inventory [PedsQL]) were evaluated in the subgroup of patients from PEDFIC 1 and/or PEDFIC 2 with a medical history of PEBD surgery performed prior to study enrollment.

[2] = test system: patients with PFIC; assay: Pooled PEDFIC 1/2 (up to 72 weeks): serum bile acids, pruritus and sleep parameters, correlations, responders; type: in vivo, human
Method: Methods: PEDFIC 1 was a randomized, double-blind study in children with PFIC1 or PFIC2; patients received either once-daily placebo, odevixibat 40 μg/kg, or odevixibat 120 μg/k g for 24 weeks. PEDFIC 2 is an ongoing, 72 week extension study in patients with any type of PFIC in which all patients receive odevixibat 120 μg/kg/day. In both PEDFIC 1 and PEDFIC 2, eligible patients had elevated serum bile acids and significant pruritus at screening. Here, patient pruritus and sleep-related data (including tiredness during the day) were included, which were evaluated twice daily by caregivers using the validated PRUCISION scale via an electronic diary. Pruritus and tiredness responses range from 0 to 4, with higher scores indicating worse symptoms; other sleep assessments include questions with Yes/No response s. Correlations between percentage change from baseline in serum bile acids and change from baseline in observer-reported diary data (pruritus, sleep characteristics) were assessed as post hoc analyses and are summarized with Pearson coefficient s (r).

[3] = of 10 patients with prior PEBD surgery

## CCCCC1(CCCC)CN(c2ccccc2)c2cc(SC)c(OCC(=O)N[C@@H](C(=O)N[C@@H](CC)C(=O)O)c3ccc(O)cc3)cc2S(=O)(=O)N1 [Odevixibat, 1,1-dioxo-3,3-dibutyl-5-phenyl-7-methylthio-8-(N-{(R)-α-[N-((S)-1-carboxypropyl)carbamoyl]-4-hydroxybenzyl}carbamoylmethoxy)-2,3,4,5-tetrahydro-1,2,5-benzothiadiazepine]
[1]; Patient 1 (prior PEBD, PFIC2; PEDFIC 1 placebo, PEDFIC 2 120 μg/kg/d; 42 weeks exposure)
  Pruritus Responder?: N (N, no)
[1]; Patient 1 (prior PEBD, PFIC2; PEDFIC 1 placebo, PEDFIC 2 120 μg/kg/d; 42 weeks exposure), baseline 1.9
  Change From Baseline in Pruritus Score: 0.1
[1]; Patient 1 (prior PEBD, PFIC2; PEDFIC 1 placebo, PEDFIC 2 120 μg/kg/d; 42 weeks exposure), baseline 172
  Change From Baseline in sBAs: -18 µmol/L
[1]; Patient 2 (prior PEBD, PFIC1; PEDFIC 1 placebo, PEDFIC 2 120 μg/kg/d; 35 weeks exposure)
  Pruritus Responder?: N (N, no)
[1]; Patient 2 (prior PEBD, PFIC1; PEDFIC 1 placebo, PEDFIC 2 120 μg/kg/d; 35 weeks exposure), baseline 3.8
  Change From Baseline in Pruritus Score: −0.9
[1]; Patient 2 (prior PEBD, PFIC1; PEDFIC 1 placebo, PEDFIC 2 120 μg/kg/d; 35 weeks exposure), baseline 225
  Change From Baseline in sBAs: -69.5 µmol/L
[1]; Patient 3 (prior PEBD, PFIC1; PEDFIC 1 40 μg/kg/d, PEDFIC 2 120 μg/kg/d; 44 weeks exposure)
  Pruritus Responder?: Y (≥1-point drop in pruritus score at last assessment)
[1]; Patient 3 (prior PEBD, PFIC1; PEDFIC 1 40 μg/kg/d, PEDFIC 2 120 μg/kg/d; 44 weeks exposure), baseline 3.0
  Change From Baseline in Pruritus Score: −2.1
[1]; Patient 3 (prior PEBD, PFIC1; PEDFIC 1 40 μg/kg/d, PEDFIC 2 120 μg/kg/d; 44 weeks exposure), baseline 193
  Change From Baseline in sBAs: 197 µmol/L
[1]; Patient 4 (prior PEBD, PFIC1; PEDFIC 1 40 μg/kg/d, PEDFIC 2 120 μg/kg/d; 55 weeks exposure)
  Pruritus Responder?: Y (≥1-point drop in pruritus score at last assessment)
[1]; Patient 4 (prior PEBD, PFIC1; PEDFIC 1 40 μg/kg/d, PEDFIC 2 120 μg/kg/d; 55 weeks exposure), baseline 3.0
  Change From Baseline in Pruritus Score: −1.5
[1]; Patient 4 (prior PEBD, PFIC1; PEDFIC 1 40 μg/kg/d, PEDFIC 2 120 μg/kg/d; 55 weeks exposure), baseline 163
  Change From Baseline in sBAs: -53.5 µmol/L
[1]; Patient 5 (prior PEBD, PFIC2; 120 μg/kg/d in PEDFIC 1 and 2; 53 weeks exposure)
  Pruritus Responder?: N (N, no)
[1]; Patient 5 (prior PEBD, PFIC2; 120 μg/kg/d in PEDFIC 1 and 2; 53 weeks exposure), baseline 2.8
  Change From Baseline in Pruritus Score: 0.3
[1]; Patient 5 (prior PEBD, PFIC2; 120 μg/kg/d in PEDFIC 1 and 2; 53 weeks exposure), baseline 156.5
  Change From Baseline in sBAs: -11.5 µmol/L
[1]; Patient 6 (prior PEBD, PFIC2; 120 μg/kg/d in PEDFIC 1 and 2; 44 weeks exposure)
  Pruritus Responder?: N (N, no)
[1]; Patient 6 (prior PEBD, PFIC2; 120 μg/kg/d in PEDFIC 1 and 2; 44 weeks exposure), baseline 3.0
  Change From Baseline in Pruritus Score: 0.0
[1]; Patient 6 (prior PEBD, PFIC2; 120 μg/kg/d in PEDFIC 1 and 2; 44 weeks exposure), baseline 237
  Change From Baseline in sBAs: 103 µmol/L
[1]; Patient 7 (prior PEBD, PFIC2; 120 μg/kg/d in PEDFIC 1 and 2; 54 weeks exposure, discontinued)
  Pruritus Responder?: N (N, no)
[1]; Patient 7 (prior PEBD, PFIC2; 120 μg/kg/d in PEDFIC 1 and 2; 54 weeks exposure, discontinued), baseline 2.9
  Change From Baseline in Pruritus Score: −0.3
[1]; Patient 7 (prior PEBD, PFIC2; 120 μg/kg/d in PEDFIC 1 and 2; 54 weeks exposure, discontinued), baseline 208
  Change From Baseline in sBAs: 178 µmol/L
[1]; Patient 8 (prior PEBD, PFIC1; 120 μg/kg/d in PEDFIC 1 and 2; 47 weeks exposure)
  Pruritus Responder?: Y (≥1-point drop in pruritus score at last assessment)
[1]; Patient 8 (prior PEBD, PFIC1; 120 μg/kg/d in PEDFIC 1 and 2; 47 weeks exposure), baseline 2.0
  Change From Baseline in Pruritus Score: −2.1
[1]; Patient 8 (prior PEBD, PFIC1; 120 μg/kg/d in PEDFIC 1 and 2; 47 weeks exposure), baseline 188.5
  Change From Baseline in sBAs: 61.5 µmol/L
[1]; Patient 9 (prior PEBD, PFIC1; PEDFIC 2 only, 120 μg/kg/d; 25 weeks exposure)
  Pruritus Responder?: N (N, no)
[1]; Patient 9 (prior PEBD, PFIC1; PEDFIC 2 only, 120 μg/kg/d; 25 weeks exposure), baseline 2.0
  Change From Baseline in Pruritus Score: −0.5
[1]; Patient 9 (prior PEBD, PFIC1; PEDFIC 2 only, 120 μg/kg/d; 25 weeks exposure), baseline 139.5
  Change From Baseline in sBAs: 8.5 µmol/L
[1]; Patient 10 (prior PEBD, PFIC2; PEDFIC 2 only, 120 μg/kg/d; 35 weeks exposure)
  Pruritus Responder?: Y (≥1-point drop in pruritus score at last assessment)
[1]; Patient 10 (prior PEBD, PFIC2; PEDFIC 2 only, 120 μg/kg/d; 35 weeks exposure), baseline 2.5
  Change From Baseline in Pruritus Score: −1.5
[1]; Patient 10 (prior PEBD, PFIC2; PEDFIC 2 only, 120 μg/kg/d; 35 weeks exposure), baseline 79.5
  Change From Baseline in sBAs: -70.5 µmol/L
[1]; [3]
  patients who met criteria for pruritus response (≥1-point drop): 4 patients
  patients with reductions in pruritus score: 7 patients
  patients with reductions in sBA levels: 5 patients
[1]; of 10 patients with prior PEBD surgery, last assessment
  patients who met criteria for sBA response (reduced by ≥70% or ≤70 μmol/L): 1 patient
[1]; of the 9 prior-PEBD patients with post-baseline QoL assessments
  patients with improved observer-reported PedsQL total scores: 6 patients
[1]; patients with prior PEBD surgery
  tolerability: generally well tolerated
[1]; prior PEBD subgroup, 9 of 10 patients, all mild to moderate
  patients with TEAEs: 90%
[2]; pooled PEDFIC 1/2, 18/84 patients
  overall incidence of any event of diarrhea: 21%
[2]; pooled PEDFIC 1/2, 71 of 84 patients, up to 72 weeks
  patients with any TEAE: 85%
[2]; pooled PEDFIC 1/2, 84 patients
  TEAEs mild or moderate in severity: 90%
  serious drug-related TEAEs or deaths: No serious drug-related TEAEs or deaths occurred
[2]; pooled PEDFIC 1/2, during odevixibat treatment (up to 72 weeks)
  patients who met criteria for serum bile acid response: approximately 40%
[2]; pooled PEDFIC 1/2, n 32, baseline 246 μmol/L
  Serum bile acids, Change From Baseline to Weeks 49-72, Mean: −53% (9%)
[2]; pooled PEDFIC 1/2, n 34, baseline 2.3
  Tiredness score, Change From Baseline to Weeks 49-72, Mean (SE): −1.2 (0.2)
[2]; pooled PEDFIC 1/2, n 34, baseline 2.8
  Pruritus score, Change From Baseline to Weeks 49-72, Mean (SE): −1.5 (0.2)
[2]; pooled PEDFIC 1/2, n 34, baseline 8
  Number of awakenings, Change From Baseline to Weeks 49-72, Mean (SE): −7 (3)
[2]; pooled PEDFIC 1/2, n 34, baseline 24
  Days taking medications to induce sleep, Change From Baseline to Weeks 49-72, Mean (SE): −3 (4) %
[2]; pooled PEDFIC 1/2, n 34, baseline 38
  Days with scratching associated with bleeding, Change From Baseline to Weeks 49-72, Mean (SE): −21 (7) %
[2]; pooled PEDFIC 1/2, n 34, baseline 67
  Days patient slept with caregiver, Change From Baseline to Weeks 49-72, Mean (SE): −38 (8) %
[2]; pooled PEDFIC 1/2, n 34, baseline 75
  Days patient needed soothing, Change From Baseline to Weeks 49-72, Mean (SE): −48 (9) %
[2]; pooled PEDFIC 1/2, n 34, baseline 78
  Days patient needed help falling asleep, Change From Baseline to Weeks 49-72, Mean (SE): −55 (8) %
[2]; pooled PEDFIC 1/2, up to 72 weeks
  patients achieving a treatment response (serum bile acid and/or pruritus criteria): approximately 60%
[2]; up to 72 weeks of odevixibat treatment
  tolerability: generally well tolerated
